Test results taken from US20260035382A1, “COMPOUNDS AS SUMO ACTIVATING ENZYME INHIBITORS” (WIGEN BIOMEDICINE TECHNOLOGY (SHANGHAI) CO., LTD., priority 2022, published 2026).

What follows are molecules tested against SAE (Homo sapiens (Human), UniProt Q9UBT2) (assay: In vitro inhibitory activity assay against SAE (SUMO-2/3 immunofluorescence in HCT116 cells)). Conditions: 6 h incubation, class symbols, read-out: SUMO IF IC50.
SAE, sequence (Q9UBT2 whole entry): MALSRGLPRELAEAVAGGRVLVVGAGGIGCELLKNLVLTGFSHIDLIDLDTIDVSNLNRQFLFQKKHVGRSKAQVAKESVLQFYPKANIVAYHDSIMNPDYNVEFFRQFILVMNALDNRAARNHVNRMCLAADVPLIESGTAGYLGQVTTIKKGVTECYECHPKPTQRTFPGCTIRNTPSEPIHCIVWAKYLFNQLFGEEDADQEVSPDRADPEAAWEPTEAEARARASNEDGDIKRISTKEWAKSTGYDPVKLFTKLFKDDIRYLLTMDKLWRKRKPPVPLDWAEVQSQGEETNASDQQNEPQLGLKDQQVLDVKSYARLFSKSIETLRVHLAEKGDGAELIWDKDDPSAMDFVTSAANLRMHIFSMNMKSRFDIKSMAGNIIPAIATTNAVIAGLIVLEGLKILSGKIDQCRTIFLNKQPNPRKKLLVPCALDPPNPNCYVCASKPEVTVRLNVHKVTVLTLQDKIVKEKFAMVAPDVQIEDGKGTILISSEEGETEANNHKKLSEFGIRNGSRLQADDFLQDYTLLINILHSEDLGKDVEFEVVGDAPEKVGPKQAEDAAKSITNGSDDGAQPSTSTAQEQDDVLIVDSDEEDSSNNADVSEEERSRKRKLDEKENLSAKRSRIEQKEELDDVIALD
SAE, sequence (Q9UBE0 whole entry partner): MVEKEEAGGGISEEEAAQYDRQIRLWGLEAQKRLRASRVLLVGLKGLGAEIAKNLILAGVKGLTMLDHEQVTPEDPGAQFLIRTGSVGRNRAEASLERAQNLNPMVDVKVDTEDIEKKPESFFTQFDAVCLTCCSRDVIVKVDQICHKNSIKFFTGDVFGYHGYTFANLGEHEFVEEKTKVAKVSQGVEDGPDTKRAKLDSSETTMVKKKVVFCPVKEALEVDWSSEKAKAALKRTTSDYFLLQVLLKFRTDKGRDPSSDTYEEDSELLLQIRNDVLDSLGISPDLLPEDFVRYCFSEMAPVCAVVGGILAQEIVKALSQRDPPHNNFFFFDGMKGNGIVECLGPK
Type: cell-based
How it was run: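 HCT116 cells treated with compounds for 6 h at 37 °C, then fixed, permeabilized and immunostained for SUMO-2/3 with FITC secondary detection. Fluorescence compared with DMSO control to give inhibition rate and IC50.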
In the case of `CN1Cc2sc(C(=O)c3cncnc3N[C@@H]3C[C@H](COS(N)(=O)=O)[C@@H](O)C3)cc2[C@@]2(C1)OCCc1ccccc12` [Compound 254], the IC50 is reported as over 200 nM. `NS(=O)(=O)OC[C@H]1C[C@@H](Nc2ncncc2C(=O)c2cc3c(s2)CCCC32OCCc3ccc(F)cc32)C[C@@H]1O` (some centres unmarked) [Compound 247] was tested, and the IC50 was 50 to 200 nM. `N#Cc1ccc2c(c1)C1(CCCc3sc(C(=O)c4cncnc4N[C@@H]4C[C@H](COS(N)(=O)=O)[C@@H](O)C4)cc31)OCC2` (some centres unmarked) [Compound 250] was tested, and the IC50 was 50 to 200 nM. In the case of `Cc1ccc2c(c1)C1(CCc3sc(C(=O)c4cncnc4N[C@@H]4C[C@H](COS(N)(=O)=O)[C@@H](O)C4)cc31)NCC2` (some centres unmarked) [Compound 64], the IC50 is reported as 50 to 200 nM. `NS(=O)(=O)OC[C@H]1C[C@@H](Nc2ncncc2C(=O)c2cc3c(s2)CSC[C@@]32NCCc3ccc(Cl)nc32)C[C@@H]1O` [Compound 146] showed an IC50 of over 200 nM. In the case of `CN1CCc2ccc(Cl)cc2[C@]12CCCc1sc(C(=O)c3cncnc3N[C@@H]3C[C@H](COS(N)(=O)=O)[C@@H](O)C3)cc12` [Compound 131], the IC50 is reported as over 200 nM. `NS(=O)(=O)OC[C@H]1C[C@@H](Nc2ncncc2C(=O)c2cc3c(s2)COC[C@@]32NCCc3c(F)cc(Cl)cc32)C[C@@H]1O` [Compound 110] was tested, and the IC50 was over 200 nM. `NS(=O)(=O)OC[C@H]1C[C@@H](Nc2ncncc2C(=O)c2cc3c(s2)OC[C@@]32NCCc3ccc(Cl)cc32)C[C@@H]1O` [Compound 62] showed an IC50 of over 200 nM. Molecule `C=CCN1Cc2sc(C(=O)c3cncnc3N[C@@H]3C[C@H](COS(N)(=O)=O)[C@@H](O)C3)cc2C2(C1)NCCc1ccc(Cl)cc12` (some centres unmarked) [Compound 190] has an IC50 of at most 50 nM. `NS(=O)(=O)OC[C@H]1C[C@@H](Nc2ncncc2C(=O)c2cc3c(s2)CC[C@]32NCCc3cc(Cl)c(Cl)cc32)C[C@@H]1O` [Compound 229] showed an IC50 of at most 50 nM. `NS(=O)(=O)OC[C@H]1C[C@@H](Nc2ncncc2C(=O)c2cc3c(s2)CC[C@]32OCCc3ccc(F)cc32)C[C@@H]1O` [Compound 285] was tested, and the IC50 was 50 to 200 nM. Molecule `NS(=O)(=O)OC[C@H]1C[C@@H](Nc2ncncc2C(=O)c2cc3c(s2)CNCC32NCCc3ccc(Cl)cc32)C[C@@H]1O` (some centres unmarked) [Compound 118] has an IC50 of 50 to 200 nM. `NS(=O)(=O)OC[C@H]1C[C@@H](Nc2ncncc2C(=O)c2cc3c(s2)COC[C@]32NCCc3c(Cl)cc(Cl)cc32)C[C@@H]1O` [Compound 102] gave an IC50 of 50 to 200 nM. With `COc1cc2c(cc1Cl)[C@@]1(CCc3sc(C(=O)c4cncnc4N[C@@H]4C[C@H](COS(N)(=O)=O)[C@@H](O)C4)cc31)NCC2` [Compound 232] the IC50 was 50 to 200 nM. In the case of `NS(=O)(=O)OC[C@H]1C[C@@H](Nc2ncncc2C(=O)c2cc3c(s2)CCCC32NCCc3ccc(F)cc32)C[C@@H]1O` (some centres unmarked) [Compound 7], the IC50 is reported as 50 to 200 nM. Molecule `CC(C)N1Cc2sc(C(=O)c3cncnc3N[C@@H]3C[C@H](COS(N)(=O)=O)[C@@H](O)C3)cc2C2(C1)OCCc1ccc(Cl)cc12` (some centres unmarked) [Compound 271] has an IC50 of 50 to 200 nM. `NS(=O)(=O)OC[C@H]1C[C@@H](Nc2ncncc2C(=O)c2cc3c(s2)COC[C@]32NCCc3cc(F)c(Cl)cc32)C[C@@H]1O` [Compound 108] showed an IC50 of 50 to 200 nM. `NS(=O)(=O)OC[C@H]1C[C@@H](Nc2ncncc2C(=O)c2nc3c(s2)CCC[C@]32NCCc3ccc(Cl)cc32)C[C@@H]1O` [Compound 123] gave an IC50 of 50 to 200 nM. `CC1=C[C@]2(NCCc3ccc(Cl)cc32)c2cc(C(=O)c3cncnc3N[C@@H]3C[C@H](COS(N)(=O)=O)[C@@H](O)C3)sc21` [Compound 159] showed an IC50 of at most 50 nM. Molecule `CN1Cc2sc(C(=O)c3cncnc3N[C@@H]3C[C@H](COS(N)(=O)=O)[C@@H](O)C3)cc2[C@@]2(C1)OCCc1ccc(F)cc12` [Compound 257] has an IC50 of over 200 nM. With `CCN1Cc2sc(C(=O)c3cncnc3N[C@@H]3C[C@H](COS(N)(=O)=O)[C@@H](O)C3)cc2C2(C1)NCCc1ccc(Cl)cc12` (some centres unmarked) [Compound 181] the IC50 was at most 50 nM. Work on `NS(=O)(=O)OC[C@H]1C[C@@H](Nc2ncncc2C(=O)c2cc3c(s2)C(F)=C[C@]32NCCc3ccc(Cl)cc32)C[C@@H]1O` [Compound 156] yielded an IC50 of at most 50 nM.

Same assay, conditions: 6 h incubation, numeric values, read-out: SUMO IF IC50
`NS(=O)(=O)OC[C@H]1C[C@@H](Nc2ncncc2C(=O)c2cc3c(s2)CC[C@@]32NCCc3ccc(Cl)cc32)C[C@@H]1O` [Compound 47] gave an IC50 of over 1000 nM.
